The text below walks through data of ChEMBL document CHEMBL1201862, “PubChem BioAssay data set” (2004).

What all share (test): growth of human tumour cells (NCI), 48 h
Experiment [1] has as its system U-251.
Experiment [2] concerns SK-MEL-28.
In experiment [3] the test system is SF-539.
For experiment [4], the system named is SNB-19.
Experiment [5] relates to HOP-62.
For experiment [6], the system named is ACHN.
In experiment [7] the test system is LOX IMVI.
In experiment [8] the test system is TK-10.
Experiment [9] deals with UO-31.
Experiment [10] deals with DU-145.
Experiment [11] relates to SK-MEL-5.
Experiment [12] concerns MDA-N.
In experiment [13] the test system is NCI-H226.
Experiment [14] deals with NCI-H522.
The test system of experiment [15] is M14.
Experiment [16] deals with COLO 205.
In experiment [17] the test system is NCI-H23.
In experiment [18] the test system is SF-295.
The test system of experiment [19] is MDA-MB-231.
The subject of experiment [20] is BT-549.

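Briefly, cells in 96-well plates were exposed to five compound concentrations for 48 h, and endpoints were estimated by linear interpolation. Here, GI50 denotes the concentration required for 50% inhibition of growth.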 Calls of active or inactive are those of the source. Rule as the data show it: active = GI50 up to about 1.1 µM and inactive = higher.

In the case of `CCOC(=O)C(=CNc1ccc(S(N)(=O)=O)cc1)C(=O)OCC`, the GI50 in experiment [1], in experiment [2], in experiment [3], in [4], in experiment [5] and in experiment [6] was > 100 µM (inactive) each time. Moreover, the GI50 in experiment [7], in experiment [8], in [9], in [10], in experiment [11] and in experiment [12] was > 100 µM (inactive) throughout. Moreover, the GI50 in experiment [13], in [14], in [15], in experiment [16], in [17] and in experiment [18] was > 100 µM (inactive) in each case. In addition, in experiment [19], the GI50 is > 100 µM (inactive).
With `O=C(/C=C/c1cccs1)c1ccc([N+](=O)[O-])cc1`, the GI50 was > 100 µM (inactive) in [1]; > 100 µM (inactive) in [2]; > 100 µM (inactive) in experiment [3]; 94.8 µM (inactive) in experiment [4]; > 100 µM (inactive) in [5]; > 100 µM (inactive) in [6]. In addition, the GI50 was 74.5 µM (inactive) in experiment [7]; > 100 µM (inactive) in experiment [8]; 26.9 µM (inactive) in [9]; > 100 µM (inactive) in [10]; > 100 µM (inactive) in experiment [11]; > 100 µM (inactive) in experiment [12]. Moreover, the GI50 in experiment [13] was 78.9 µM (inactive); in experiment [15], > 100 µM (inactive); in [16], > 100 µM (inactive); in [17], > 100 µM (inactive); in experiment [18], 90.8 µM (inactive); in experiment [19], > 100 µM (inactive).
As for `COc1ccc(/N=C2\C(=O)Nc3ccc(Br)cc32)cc1`, the GI50 in experiment [1] was 22.9 µM (inactive); in experiment [2], 31.3 µM (inactive); in experiment [3], 16.5 µM (inactive); in experiment [4] it was 33.4 µM (inactive); in experiment [5], 29.2 µM (inactive); in experiment [6], 15.4 µM (inactive). Further, the GI50 is 10.1 µM (inactive) in experiment [7]; 23.6 µM (inactive) in [8]; 9.82 µM (inactive) in experiment [9]; 32.3 µM (inactive) in experiment [10]; 11.2 µM (inactive) in [11]; 13.9 µM (inactive) in [12]. Further, the GI50 is 16.2 µM (inactive) in experiment [13]; 9.38 µM (inactive) in [14]; 17.5 µM (inactive) in [15]; 15.7 µM (inactive) in experiment [16]; 18.2 µM (inactive) in experiment [17]; 22.8 µM (inactive) in [18]. In addition, in experiment [19], the GI50 is 13.9 µM (inactive).
As for `CC(C)=Cc1cc(CCC/C(C)=C/Cc2c(O)cc(C)c(C(=O)O)c2O)co1`, the GI50 in experiment [1], in experiment [2], in experiment [3], in [4], in [5] and in [6] was > 100 µM (inactive) throughout. The GI50 in [7] was 86.9 µM (inactive); in experiment [8], > 100 µM (inactive); in experiment [9] it was > 100 µM (inactive); in experiment [10], > 100 µM (inactive); in experiment [11], > 100 µM (inactive); in experiment [14], 12.9 µM (inactive). Further, the GI50 in [15] is > 100 µM (inactive); in [16] it was > 100 µM (inactive); in experiment [20], > 100 µM (inactive); in [17], > 100 µM (inactive); in experiment [18], > 100 µM (inactive); in experiment [19], 39 µM (inactive).
For the compound `O=c1c(Cl)c(Cl)cnn1CCCl`, the GI50 in experiment [1] was 5.9 µM (inactive); in experiment [2], 2.08 µM (inactive); in experiment [3], 14.1 µM (inactive); in experiment [4] it was 7.03 µM (inactive); in experiment [5] it was 17.3 µM (inactive); in [6] it was 0.904 µM (active). The GI50 is 2.86 µM (inactive) in experiment [7]; 15.9 µM (inactive) in experiment [8]; 5.75 µM (inactive) in [9]; 18.7 µM (inactive) in [10]; 3.4 µM (inactive) in experiment [11]; 23.2 µM (inactive) in experiment [13]. The GI50 in [14] was 0.558 µM (active); in experiment [15], 2.67 µM (inactive); in experiment [16], 2.24 µM (inactive); in experiment [20], 3.47 µM (inactive); in [17] it was 2.52 µM (inactive); in experiment [18], 16 µM (inactive).
With `COc1ccc(/C(Cl)=C(\CNc2ccccn2)c2ccccc2)cc1OC`, the GI50 in experiment [1], in experiment [2], in [3], in [4], in experiment [5] and in [6] was > 100 µM (inactive) throughout. Besides, the GI50 in experiment [7], in experiment [8], in [9], in experiment [10], in experiment [11] and in [12] was > 100 µM (inactive) in each case. Moreover, the GI50 was > 100 µM (inactive) in experiment [13]; 99.8 µM (inactive) in [14]; > 100 µM (inactive) in experiment [16]; > 100 µM (inactive) in experiment [17]; > 100 µM (inactive) in experiment [18]; > 100 µM (inactive) in experiment [19].
As to `CC(=O)OCC1OC(Sc2nc(-c3ccc(C)cc3)c(C#N)c(=O)n2C2OC(COC(C)=O)C(OC(C)=O)C(OC(C)=O)C2OC(C)=O)C(OC(C)=O)C(OC(C)=O)C1OC(C)=O` (configuration not stated), the GI50 in experiment [1], in experiment [2], in experiment [3], in experiment [4], in experiment [5] and in experiment [6] was > 100 µM (inactive) each time. For the same compound, the GI50 in experiment [7], in experiment [8], in [9], in experiment [10], in experiment [11] and in experiment [13] was > 100 µM (inactive) each time. Besides, the GI50 in [14], in experiment [20], in experiment [17] and in experiment [18] was > 100 µM (inactive) throughout.
Take `CC(O)CNC1=CC(=O)C(=O)c2ccccc21` (configuration not stated): the GI50 is 15.8 µM (inactive) in experiment [1]; 19 µM (inactive) in [2]; 19.2 µM (inactive) in [3]; 16.7 µM (inactive) in experiment [4]; 18.2 µM (inactive) in experiment [5]; 18.5 µM (inactive) in experiment [6]. Moreover, the GI50 in experiment [7] was 15.9 µM (inactive); in experiment [8], 28.7 µM (inactive); in [9], 17.7 µM (inactive); in experiment [10] it was 15.5 µM (inactive); in experiment [11], 2.82 µM (inactive); in [12], 18.4 µM (inactive). Besides, the GI50 is 18.5 µM (inactive) in [14]; 15.5 µM (inactive) in experiment [15]; 7.64 µM (inactive) in experiment [16]; 16.5 µM (inactive) in [17]; 13.5 µM (inactive) in [18]; 22 µM (inactive) in experiment [19].
Consider `O=[PH]1c2ccccc2Nc2ccccc21`, for which the GI50 in experiment [1], in [2], in experiment [3], in experiment [4], in experiment [5] and in experiment [6] was > 100 µM (inactive) throughout. In addition, the GI50 was > 100 µM (inactive) in [7]; > 100 µM (inactive) in experiment [8]; 98.6 µM (inactive) in [10]; > 100 µM (inactive) in experiment [11]; > 100 µM (inactive) in experiment [12]; > 100 µM (inactive) in experiment [13]. The GI50 is 74.3 µM (inactive) in [14]; > 100 µM (inactive) in experiment [15]; > 100 µM (inactive) in [16]; > 100 µM (inactive) in experiment [17]; > 100 µM (inactive) in [18]; 45.9 µM (inactive) in [19].
As for `COc1ccc(Oc2cccc(/C=C3/C(=O)Nc4ccccc43)c2)cc1`, the GI50 is 1.91 µM (inactive) in experiment [1]; 7.06 µM (inactive) in [2]; 18.9 µM (inactive) in experiment [3]; 6.1 µM (inactive) in experiment [4]; 14.8 µM (inactive) in experiment [5]; 11.6 µM (inactive) in experiment [6]. In addition, the GI50 in [8] is 15.2 µM (inactive); in experiment [9], 6.82 µM (inactive); in experiment [10], 14.1 µM (inactive); in experiment [11], 2.62 µM (inactive); in experiment [14] it was 6.61 µM (inactive); in experiment [15], 11.9 µM (inactive). In addition, the GI50 in [16] is 3.73 µM (inactive); in [20] it was 14.8 µM (inactive); in experiment [17], 3.23 µM (inactive); in [18], 7.01 µM (inactive).
On to `CCCCCCCCCCCCCC[S+](C)C`, for which the GI50 is 1.09 µM (active) in [1]; 2.58 µM (inactive) in experiment [2]; 1.27 µM (inactive) in experiment [3]; 1.4 µM (inactive) in [4]; 1.67 µM (inactive) in experiment [5]; 3.32 µM (inactive) in experiment [6]. Moreover, the GI50 in experiment [7] is 1.79 µM (inactive); in experiment [8] it was 1.71 µM (inactive); in experiment [9], 3.07 µM (inactive); in experiment [10] it was 3.8 µM (inactive); in [11], 1.53 µM (inactive); in experiment [12], 2.08 µM (inactive). The GI50 in experiment [13] was 1.99 µM (inactive); in experiment [14], 1.75 µM (inactive); in experiment [15] it was 1.83 µM (inactive); in experiment [16], 1.62 µM (inactive); in experiment [17], 1.5 µM (inactive); in [18], 3.33 µM (inactive). Moreover, the GI50 in experiment [19] is 2.23 µM (inactive).
